Measured values published in patent publication US20130040908A1, “SUBSTITUTION DERIVATIVES OF N6-BENZYLADENOSINE-5' -MONOPHOSPHATE, METHODS OF PREPARATION THEREOF, USE THEREOF AS MEDICAMENTS, AND THERAPEUTIC PREPARATIONS CONTAINING THESE COMPOUNDS” (BIOAPEX, S.R.O., priority 2010, published 2013).

How the values were obtained:
[1] = test system: K-562 (human erythroleukemia); experiment: Calcein AM cytotoxicity assay, K-562; assay type: cell-based
Description: (§1) Because toxic compounds negatively influence metabolic processes in cells, many standard cytotoxicity assays are based on measurement of metabolisation rate of various artificial substrates. Resulting product is then quantified e.g. by means of spectrometry. The assays can be easily modified for use in 96-well plates. For evaluation of cytotoxic effect of the novel substituted 9-substituted cytokinin derivatives of this invention, a microtiter assay based on quantification of metabolisation of Calcein AM was used. The assay is widely used in drug screening programs and in chemosensitivity testing. In the living cells, Calcein AM is enzymatically hydrolysed and accumulation of resulting calcein is manifested by green fluorescence.
(§2) Normal human fibroblasts BJ were used as a control for routine screening of the compounds. The cells were kept in Nunc/Corning 80 cm^2 plastic bottles and grown in cell culture medium (DMEM containing 5 g/l glucose, 2 mM glutamine, 100 U/ml penicillin, 100 μg/ml streptomycine, 10% fetal bovine serum and sodium hydrogencarbonate), the compounds were prepared according to the procedure of the present invention.
(§3) The cell suspensions were prepared and diluted according to the particular cell type and the expected target cell density (2.500-30.000 cells per well based on cell growth characteristics) and pippetted (80 μl) into 96-well plates. […] Tested compound was added in total volume of 20 μl of water at time zero. Usually, test compound was evaluated at six 3-fold dilutions. […] All drug concentrations were tested in triplicates. […] At the end of incubation period Calcein AM in PBS was added into final concentration of 1 μg/ml. After another 1 hour of incubation fluorescence (FD) was measured with the Labsystem FIA Reader Fluoroscan Ascent (UK). Growth inhibition (GI) was estimated using the following equitation: GI=(mean FDdrug exposed wells−mean FDblank)/(mean FDcontrol wells−mean FDblank)×100%.

[2] = test system: G-361 (human malignant melanoma); experiment: Calcein AM cytotoxicity assay, G-361; assay type: cell-based; conditions: G-361, 72 hours
Description: as §1, §2, §3

[3] = test system: MCF-7 (breast carcinoma); experiment: Calcein AM cytotoxicity assay, MCF7; assay type: cell-based; conditions: MCF7, 72 hours
Description: as §1, §2, §3

[4] = test system: CEM (T-lymphoblastoid leukemia); experiment: Calcein AM cytotoxicity assay, CEM; assay type: cell-based; conditions: 72 hours
Description: as §1, §2, §3

[5] = test system: Human lymphocytes; experiment: Immunosuppressive activity, 3H-thymidine incorporation in concanavalin A activated lymphocytes; assay type: cell-based; conditions: 72 hours, [3H]-TdR
Description: One of the most important parameters of specific cellular immunity is the proliferative response of lymphocytes to antigens or polyclonal mitogens. The majority of normal mammalian peripheral lymphocytes comprise resting cells. Antigens or nonspecific polyclonal mitogens have the capacity to activate lymphoid cells and this is accompanied by dramatic changes of intracellular metabolism (mitochondrial activity, protein synthesis, nucleic acids synthesis, formation of blastic cells and cellular proliferation). […] Variety of in vitro assays was developed to measure proliferative response of lymphocytes. The most commonly used is ^3H-thymidine incorporation method.
During cell proliferation, DNA has to be replicated before the cell is divided into two daughter cells. This close association between cell doublings and DNA synthesis is very attractive for assessing cell proliferation. If labelled DNA precursors are added to the cell culture, cells that are about to divide incorporate the labelled nucleotide into their DNA. Traditionally, those assays usually involve the use of radiolabelled nucleosides, particularly tritiated thymidine ([^3H]-TdR). The amount of [^3H]-TdR incorporated into the cellular DNA is quantified by liquid scintillation counting. Human heparinized peripheral blood was obtained from healthy volunteers by cubital vein punction. The blood was diluted in PBS (1:3) and mononuclear cells were separated by centrifugation in Ficoll-Hypaque density gradient (Pharmacia, 1.077 g/ml) at 2200 rpm for 30 minutes. Following centrifugation, lymphocytes were washed in PBS and resuspended in cell culture medium (RMPI 1640, 2 mM glutamine, 100 U/ml penicillin, 100 μg/ml streptomycin, 10% fetal calf serum and sodium bicarbonate).
The cells were diluted at target density of 1.100.000 cells/ml and were added by pipette (180 μl) into 96-well microtiter plates. Four-fold dilutions of the intended test concentration were added at time zero in 20 μl aliquots to the microtiter plate wells. Usually, test compound was evaluated at six 4-fold dilutions. In routine testing, the highest well concentration was 266.7 μM. All drug concentrations were examined in duplicates. All wells with exception of unstimulated controls were activated with 50 of concanavalin A (25 μg/ml). Incubations of cells with test compounds lasted for 72 hours at 37° C., in 5% CO2 atmosphere and 100% humidity. At the end of incubation period, the cells were assayed by using the [^3H]-TdR:
Cell cultures were incubated with 0.5 μCi (20 μl of stock solution 500 μCi/ml per well for 6 hours at 37° C. and 5% CO2. The automated cell harvester was used to lyse cells in water and adsorb the DNA onto glass-fiber filters in the format of microtiter plate. The DNA incorporated [^3H]-TdR was retained on the filter while unincorporated material passes through. The filters were dried at room temperature overnight, sealed into a sample bag with 10-12 ml of scintillant. The amount of [^3H]-TdR present in each filter (in cpm) was determined by scintillation counting in a Betaplate liquid scintillation counter. The effective dose of immunosuppressant (ED) was calculated using the following equation: ED=(CCPMdrug exposed well/mean CCPMcontrol wells)×100%. The ED50 value, the drug concentration inhibiting proliferation of 50% of lymphocytes, was calculated from the obtained dose response curves.

[6] = test system: HL-60 (promyelocytic leukemia); experiment: Calcein AM cytotoxicity assay, HL60; assay type: cell-based, human
Description: as §1, §2, §3

[7] = test system: HOS (human osteogenic sarcoma); experiment: Calcein AM cytotoxicity assay, HOS; assay type: cell-based; conditions: 72 hours
Description: as §1, §2, §3

[8] = test system: Leukemia cell line CEM; experiment: Flow cytometry of DNA fragmentation (sub-G1) in CEM cells; assay type: cell-based; conditions: IC50, triple IC50 and fivefold IC50
Method: One of the hallmarks of apoptosis is fragmentation of DNA. It can be measured by flowcytometry of the cells stained with propidium iodide. Because the fragmentation results in a loss of a fraction of the nuclear DNA, apoptotic cells have a lower DNA content than cells in G1 phase of cell cycle and can be detected as a subG1 peak in the histogram.
Leukemia cell line CEM was cultured in cell culture medium (DMEM containing 5 g/l glucose, 2 mM glutamine, 100 U/ml peniciline, 100 μg/ml streptomycine, 10% fetal calf serum and sodium bicarbonate). 24 hours before treatment, cell suspensions were centrifuged, diluted with fresh medium to concentration of 100000 cells per ml with fresh medium and pipetted in 10 ml aliquotes Petri dishes. After an incubation for a given time period, the cells were collected by centrifugation (4° C., 600 g), washed with PBS (4° C.) and fixed with 70% ethanol at −20° C. overnight. Low molecular weight DNA fragmentse were extracted with citrate buffer (11.36 g trisodium citrate dihydrate/1). The nuclei were stained with the solution of propidium iodide in PBS (10 μg/ml) containing RNase A (60 IU per sample). After 1 hour incubation the samples were analyzed by flowcytometry (excitation 488 nm, emission above 620 nm).

[9] = test system: caspase-3; experiment: Caspase-3 activity in CEM cells (Apo-ONE kit); assay type: cell-based; conditions: 10 μM, 12 and 24 hours
Method: In the course of apoptosis, caspase cascade is activated. Caspase-3 is an effector caspase that plays a role in the induction of some changes typical for apoptosis (chromatin condensation, DNA fragmentation). Leukemia cell line CEM was cultured in cell culture medium (DMEM containing 5 g/l glucose, 2 mM glutamine, 100 U/ml peniciline, 100 μg/ml streptomycine, 10% fetal calf serum and sodium bicarbonate). 24 hours before treatment, cell suspensions were centrifuged, diluted to concentration of 500000 cells per ml with fresh medium and pipetted in 50 μl, aliquotes into 96-well plate. After 12 and 24 hours of incubation with the test compound, the activity of caspase-3 was measured using commercial kit (Apo-ONE, Promega) that is based on quantification of hydrolysis of fluorogenic substrate Z-DEVD-R110 (excitation 480 nm/emission 520 nm). Reaction specificity was confirmed in a control experiment, when both test compound and caspase-3 inhibitor Ac-DEVD-CHO were added. All experiments were done in triplicate.

[10] = test system: P388D1 leukemia; experiment: In vivo anticancer activity, survival model of P388D1 leukemia; conditions: oral 250 mg/kg twice daily
Method: Screening of biological activity of compound 21 was performed on survival model of P388D1 leukemia transplanted intraperitoneally with 2.10^5 cells. DBA-2 mice were used as a host. One day following the leukemia transplantation, treatment with 21 was initiated. The drug was given orally by gastric gavages in total volume of 200 μl/dose twice daily at dose 250 mg/kg in two chemotherapy cycles (Days 1-3 and 7-9). The compound 21 was solubilized in 5% […], 30% polyethylene glycol 400, 65% tartar buffer (pH 3.0). Survival analysis of treated animals (10 mice/group) was preformed in comparison with vehicle treated mice using Kaplan-Meier method and the significance was evaluated by the log-rank test. Body weight of experimental animals was evaluated in parallel in order to reflect toxicity and efficacy of therapy. Comparative analysis of body weight was performed using non-parametric t-test.

[11] = test system: Normal human fibroblasts BJ; experiment: Calcein AM cytotoxicity assay, BJ fibroblasts; assay type: cell-based; conditions: 72 hours
Description: as §1, §2, §3

Compound	GI50 ([1]; K-562, 72 hours)	GI50 [3]	GI50 [4]	Human lymphocytes ED50 [5]	GI50 ([6]; HL60, 72 hours)	GI50 [7]	further results
O=P(O)(O)OC[C@H]1O[C@@H](n2cnc3c(NCc4cccc(F)c4)ncnc32)[C@H](O)[C@@H]1O [Compound 2, 6-(3-fluorobenzylamino)purine riboside-5′-monophosphate]	7.2 µM	14.7 µM	3.2 µM	11.5 µM	0.83 µM		GI50 [2]: 14.6 µM
O=P(O)(O)OC[C@H]1O[C@@H](n2cnc3c(NCc4ccc(F)cc4)ncnc32)[C@H](O)[C@@H]1O [Compound 3, 6-(4-fluorobenzylamino)purine riboside-5′-monophosphate]	6.1 µM	12.3 µM	1.2 µM	13.4 µM	0.69 µM	12.1 µM	
Cc1cccc(CNc2ncnc3c2ncn3[C@@H]2O[C@H](COP(=O)(O)O)[C@@H](O)[C@H]2O)c1 [Compound 13, 6-(3-methylbenzylamino)purine riboside-5′-monophosphate]	160 µM	71.7 µM	11.6 µM	7.5 µM	6.6 µM		
COc1ccccc1CNc1ncnc2c1ncn2[C@@H]1O[C@H](COP(=O)(O)O)[C@@H](O)[C@H]1O [Compound 15, 6-(2-methoxybenzylamino)purine riboside-5′-monophosphate]	8.4 µM	113 µM	2.4 µM		2.1 µM	20.1 µM	
O=P(O)(O)OC[C@H]1O[C@@H](n2cnc3c(NCc4ccccc4O)ncnc32)[C@H](O)[C@@H]1O [Compound 21, 6-(2-hydroxybenzylamino)purine riboside-5′-monophosphate]				6.7 µM			DNA fragmentation (apoptotic sub-G1 fraction) [8]: induction of DNA fragmentation; activity of caspase-3 [9]: activates caspase-3; body weight of treated animals [10]: only slight reduction; tolerability in animals [10]: good tolerability; mean survival time ([10]; Days 1-3 and 7-9, vehicle group 13.9 days): 15.4 days; survival analysis (Kaplan-Meier, log-rank) ([10]; P=0.0409 versus vehicle): significantly better survival
O=P(O)(O)OC[C@H]1O[C@@H](n2cnc3c(NCc4cccc(O)c4)ncnc32)[C@H](O)[C@@H]1O [Compound 22, 6-(3-hydroxybenzylamino)purine riboside-5′-monophosphate]	92.4 µM	108 µM	49.8 µM	12.8 µM	19 µM		
O=P(O)(O)OC[C@H]1O[C@@H](n2cnc3c(NCc4ccc(Cl)c(Cl)c4)ncnc32)[C@H](O)[C@@H]1O [Compound 25, 6-(3,4-dichlorobenzylamino)purine riboside-5′-monophosphate]	6.1 µM	82.8 µM	3.1 µM		1 µM	112 µM	GI50 [11]: 132 µM
Nc1ncnc2c1ncn2[C@@H]1O[C@H](COP(=O)(O)O)[C@@H](O)[C@H]1O [adenosine-5′-monophosphate, reference compound]			> 167 µM				GI50 ([1]; Homo sapiens, K562, K-562, 72 hours): > 167 µM; GI50 ([2]; Homo sapiens): > 167 µM; GI50 ([3]; Homo sapiens): > 167 µM; GI50 ([7]; Homo sapiens): > 167 µM; GI50 ([6]; Homo sapiens, HL-60, HL60, 72 hours): > 167 µM; GI50 ([11]; Homo sapiens, Fibroblast): > 167 µM
zeatin riboside-5′-monophosphate [reference compound]	> 167 µM	> 167 µM	> 167 µM		> 167 µM	> 167 µM	GI50 [2]: > 167 µM; GI50 [11]: > 167 µM
